From ChEMBL document CHEMBL1149354, “A new series of pyridinyl-alkynes as antagonists of the metabotropic glutamate receptor 5 (mGluR5)” (Bioorg Med Chem Lett, 2006)

Columns and labels:
[1] = target: Metabotropic glutamate receptor 5 (Homo sapiens, UniProt P41594); assay: Activity at human mGluR5 assessed as effect on glutamate-induced calcium ion mobilization by FLIPR; type: functional
[2] = target: Metabotropic glutamate receptor 1 (Homo sapiens, UniProt Q13255); assay: Activity at human mGluR1 assessed as effect on glutamate-induced calcium ion mobilization by FLIPR; type: functional
[3] = Intrinsic clearance in rat liver microsomes; type: ADME, Microsome

Metabotropic glutamate receptor 5, sequence (P41594 whole entry): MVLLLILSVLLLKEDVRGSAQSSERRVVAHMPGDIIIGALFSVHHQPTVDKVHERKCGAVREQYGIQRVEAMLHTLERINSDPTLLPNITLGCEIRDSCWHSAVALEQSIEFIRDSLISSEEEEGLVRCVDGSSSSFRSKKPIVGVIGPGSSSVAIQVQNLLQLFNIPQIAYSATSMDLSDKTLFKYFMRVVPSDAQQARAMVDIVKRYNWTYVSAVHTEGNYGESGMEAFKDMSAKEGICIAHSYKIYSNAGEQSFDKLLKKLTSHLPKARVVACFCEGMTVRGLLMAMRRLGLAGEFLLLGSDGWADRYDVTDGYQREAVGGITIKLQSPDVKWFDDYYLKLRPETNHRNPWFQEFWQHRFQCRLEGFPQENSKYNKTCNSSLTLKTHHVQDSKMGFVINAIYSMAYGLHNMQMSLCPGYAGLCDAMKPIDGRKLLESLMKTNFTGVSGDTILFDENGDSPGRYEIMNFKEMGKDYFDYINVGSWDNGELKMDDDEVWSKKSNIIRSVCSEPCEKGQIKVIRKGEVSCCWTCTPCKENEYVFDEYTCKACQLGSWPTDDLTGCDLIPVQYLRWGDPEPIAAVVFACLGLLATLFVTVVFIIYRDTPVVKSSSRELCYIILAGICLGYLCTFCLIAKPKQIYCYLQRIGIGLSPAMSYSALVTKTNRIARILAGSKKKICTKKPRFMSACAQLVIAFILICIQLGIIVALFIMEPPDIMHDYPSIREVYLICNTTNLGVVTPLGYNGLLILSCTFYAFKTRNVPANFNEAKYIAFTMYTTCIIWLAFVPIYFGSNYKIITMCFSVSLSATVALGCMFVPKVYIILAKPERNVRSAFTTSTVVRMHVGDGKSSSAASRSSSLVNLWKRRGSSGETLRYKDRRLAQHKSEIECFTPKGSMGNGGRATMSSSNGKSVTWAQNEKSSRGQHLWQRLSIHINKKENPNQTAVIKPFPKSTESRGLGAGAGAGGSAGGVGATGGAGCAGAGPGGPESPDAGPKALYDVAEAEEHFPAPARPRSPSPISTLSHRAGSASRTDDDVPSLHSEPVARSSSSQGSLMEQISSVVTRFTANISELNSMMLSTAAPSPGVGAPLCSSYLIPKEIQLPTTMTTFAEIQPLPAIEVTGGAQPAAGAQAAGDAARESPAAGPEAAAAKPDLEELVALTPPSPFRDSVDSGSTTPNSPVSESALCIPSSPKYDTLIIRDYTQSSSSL
Metabotropic glutamate receptor 1, sequence (Q13255 whole entry): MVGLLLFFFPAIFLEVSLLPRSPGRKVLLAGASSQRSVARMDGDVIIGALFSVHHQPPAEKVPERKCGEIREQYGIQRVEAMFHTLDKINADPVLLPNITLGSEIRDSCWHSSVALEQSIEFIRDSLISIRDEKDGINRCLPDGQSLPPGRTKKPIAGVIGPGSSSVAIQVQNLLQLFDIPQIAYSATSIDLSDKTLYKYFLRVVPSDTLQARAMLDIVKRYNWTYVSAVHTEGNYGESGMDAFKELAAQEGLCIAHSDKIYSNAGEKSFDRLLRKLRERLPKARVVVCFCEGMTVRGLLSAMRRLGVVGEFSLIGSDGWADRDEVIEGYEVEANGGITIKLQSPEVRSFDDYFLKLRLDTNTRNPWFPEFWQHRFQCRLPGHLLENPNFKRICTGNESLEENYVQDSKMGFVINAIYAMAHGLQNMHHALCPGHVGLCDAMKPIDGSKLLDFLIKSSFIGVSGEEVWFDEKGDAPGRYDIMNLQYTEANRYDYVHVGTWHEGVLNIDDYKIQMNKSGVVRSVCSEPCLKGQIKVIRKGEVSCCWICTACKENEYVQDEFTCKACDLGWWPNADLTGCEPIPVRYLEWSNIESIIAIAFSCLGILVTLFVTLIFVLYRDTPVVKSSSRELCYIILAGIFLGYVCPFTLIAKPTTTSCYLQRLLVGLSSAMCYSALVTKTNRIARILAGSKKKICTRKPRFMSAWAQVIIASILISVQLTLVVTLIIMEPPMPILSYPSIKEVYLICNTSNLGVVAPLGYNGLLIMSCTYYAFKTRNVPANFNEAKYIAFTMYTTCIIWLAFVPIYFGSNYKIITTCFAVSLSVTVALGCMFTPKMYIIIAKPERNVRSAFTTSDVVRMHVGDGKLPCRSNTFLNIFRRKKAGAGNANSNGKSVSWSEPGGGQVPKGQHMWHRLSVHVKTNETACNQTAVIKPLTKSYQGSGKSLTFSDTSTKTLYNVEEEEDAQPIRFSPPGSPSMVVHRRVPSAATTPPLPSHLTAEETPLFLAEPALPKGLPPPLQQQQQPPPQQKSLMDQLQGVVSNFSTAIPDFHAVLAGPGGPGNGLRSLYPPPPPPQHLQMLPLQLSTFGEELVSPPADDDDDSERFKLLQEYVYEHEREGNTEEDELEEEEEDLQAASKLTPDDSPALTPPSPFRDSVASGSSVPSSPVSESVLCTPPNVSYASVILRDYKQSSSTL

SMILES	IC50 [1] [nM]	IC50 [2] [nM]	microsomal CLint [3] [µL/min/mg]
COc1cccc(OCC#Cc2ccccn2)c1	1540	> 10000	–
Cc1cccc(C#CCOc2cccnc2)n1	> 10000	–	–
COc1cccc(OCC#Cc2cccc(OC)n2)c1	> 10000	–	–
COc1cccc(OCC#Cc2nccs2)c1	> 10000	–	–
COc1cccc(OCC#Cc2ncccc2C)c1	> 10000	–	–
Cc1cccc(C#CCOc2ccccc2Cl)n1	> 3000	–	–
COc1cccc(OCC#Cc2cnccn2)c1	> 10000	–	–
COc1cccc(OCC#Cc2ccncc2)c1	> 10000	–	–
Cc1ccc(OCC#Cc2cccc(C)n2)cn1	2490	–	–
Cc1cccc(C#CCOc2ccccc2)n1	> 10000	–	–
COc1cccc(OCC#Cc2cc(C)ccn2)c1	> 10000	–	–
COC(=O)c1cncc(OCC#Cc2cccc(C)n2)c1	1490	–	–
COc1cccc(OCC#Cc2ccc(C)cn2)c1	7930	–	–

Now those with a lower IC50 [1], led by results:

IC50 [1] [nM]	IC50 [2] [nM]	microsomal CLint [3] [µL/min/mg]	SMILES
825	–	–	Cc1cccc(C#CCOc2cc(=O)[nH]c3ccccc23)n1
455	–	–	COc1ccc(OCC#Cc2cccc(C)n2)cc1
416	–	–	Cc1cccc(C#CCOc2cccc([N+](=O)[O-])c2)n1
397	> 10000	–	COc1cccc(OCC#Cc2cccc(C)n2)c1
300	≥ 10000	–	CCC(O)(CO)c1cc(F)cc(OCC#Cc2ccccn2)c1 (stereo not drawn)
115	–	–	Cc1ccc(OCC#Cc2cccc(C)n2)cc1
102	–	–	Cc1cccc(C#CCOc2ccc(Cl)cc2)n1
101	–	–	Cc1cccc(C#CCOc2cccc(Cl)c2)n1
83	–	–	Cc1cccc(C#CCOc2ccc(C(C)C)cc2)n1
36	–	–	Cc1cccc(C#CCOc2ccc3c(c2)CCCC3)n1
15	–	278	Cc1cccc(C#CCOc2ccc(Cl)c(Cl)c2)n1
